This is an account of results in publication PMC7011086 (Frontiers in Pharmacology, 2020).

As usually defined, the inhibition is the share of the control response that was lost under treatment.

Data set [1] has as its system washed platelets. Nature of the data set: Flow cytometry: fibrinogen binding and P-selectin exposure. It is filed as cell-based, human. On the procedure: Whole blood was centrifuged at 250 × g for 10 min at 22°C to obtain PRP. To obtain washed platelets (WP), PRP was centrifuged twice (1,000 × g, 10 min, 20°C) in the presence of 1.25 μg/ml prostacyclin. The final platelet pellet was resuspended in modified Tyrode's-HEPES buffer, (20 mM N-2-hydroxyethylpiperazine-N'-2-ethanesulfonic acid, 5 mM glucose, 134 mM NaCl, 0.34 mM Na2HPO4, 2.9 mM KCl, 12 mM NaHCO3, and 1 mM MgCl2, pH 7.3) and rested for 30 min at 30°C before experiments. All protocols using human blood samples were approved by the Research Ethics Committees of the Federal University of […] and the University of Reading. WP (2-3 × 10^8 platelets/ml) were incubated with PESc at the same concentrations and conditions used for platelet aggregation experiments. Then WP were incubated for 10 min with thrombin (0.02 U/ml). FITC-conjugated PAC-1 antibody was added for 10 min in the dark and fluorescence read using a flow cytometer FACS Calibur (BD Biosciences, Franklin Lakes, USA). […] FITC-conjugated fibrinogen and PE/Cy5-conjugated anti-human CD62P were incubated for 30 min, then platelets were read after a 25-fold dilution with Tyrodes-HEPES buffer.

For data set [2], the system named is washed platelets. As to the kind of experiment: Washed platelet aggregation (myricetin, gallic acid). It is filed as cell-based, human. The settings on record: for inhibition of platelet aggregation (in words): 75-300 μM; for inhibition at 30 µM: Homo sapiens, Platelet. On the procedure:
Whole blood was centrifuged at 250 × g for 10 min at 22°C to obtain PRP. To obtain washed platelets (WP), PRP was centrifuged twice (1,000 × g, 10 min, 20°C) in the presence of 1.25 μg/ml prostacyclin. The final platelet pellet was resuspended in modified Tyrode's-HEPES buffer, (20 mM N-2-hydroxyethylpiperazine-N'-2-ethanesulfonic acid, 5 mM glucose, 134 mM NaCl, 0.34 mM Na2HPO4, 2.9 mM KCl, 12 mM NaHCO3, and 1 mM MgCl2, pH 7.3) and rested for 30 min at 30°C before experiments. All protocols using human blood samples were approved by the Research Ethics Committees of the Federal University of […] and the University of Reading. PRP and WP aggregation assays were performed in a four-channel aggregometer (Helena Biosciences, […], England). […] Aggregation traces from at least three different donors were recorded for 5 min.

For data set [3], the target named is T1, recombinant ERp57 (Homo sapiens, UniProt P30101).
T1 sequence (P30101 25-505): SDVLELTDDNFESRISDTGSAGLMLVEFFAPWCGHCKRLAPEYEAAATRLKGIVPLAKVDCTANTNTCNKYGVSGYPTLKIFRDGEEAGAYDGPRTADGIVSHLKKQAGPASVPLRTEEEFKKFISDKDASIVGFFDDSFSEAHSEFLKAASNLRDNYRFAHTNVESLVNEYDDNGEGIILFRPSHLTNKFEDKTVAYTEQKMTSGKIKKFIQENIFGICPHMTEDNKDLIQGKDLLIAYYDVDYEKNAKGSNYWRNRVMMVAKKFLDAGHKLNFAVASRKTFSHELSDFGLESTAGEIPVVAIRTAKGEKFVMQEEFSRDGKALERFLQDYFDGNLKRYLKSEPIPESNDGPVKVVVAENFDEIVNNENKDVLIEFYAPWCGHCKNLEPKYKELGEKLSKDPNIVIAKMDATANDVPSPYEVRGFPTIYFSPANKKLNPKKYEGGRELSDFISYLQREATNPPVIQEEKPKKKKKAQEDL
As to the kind of experiment: biochemical.

Data set [4] concerns the target T2, recombinant PDI (Homo sapiens, UniProt P07237). Nature of the data set: biochemical.
For data set [5], the system named is VASP (Ser239). Nature of the data set: VASP (Ser239) phosphorylation immunoblotting. It is filed as cell-based, human. The settings on record: resting washed platelets, 7.5, 15 and 30 μM, 10 min. The method, then:
After protein separation, semi-dry transfer was performed at 15V for 2 h using a BioRad Trans-blot semidry blotter. Membranes were blocked with 5% bovine serum albumin (BSA) for 1 h and incubated with primary antibodies against VASP ([…]) or GAPDH at 1:1,000 v/v dilution overnight. After washing the primary antibody off, […] secondary antibody was incubated for 1 h at room temperature at 1:4,000 v/v dilution. Membranes were visualized using a Typhoon imaging system (GE Healthcare, Hatfield, UK).
In general terms: A western blot detects proteins with antibodies after separation by electrophoresis.

Data set [6] has as its target T2, recombinant PDI. The settings on record: Kq=KSV/τ0, τ0 10^-8 s.
In data set [7] the test system is washed platelets. Nature of the data set: Platelet spreading on collagen or fibrinogen. It is filed as cell-based, human. On the procedure:
Non-adhered platelets were removed and the coverslip washed three times with PBS. Adhered platelets were fixed using 0.2% paraformaldehyde for 10 min. This solution was then removed and coverslips washed three times with PBS before the addition of 0.1% (v/v) Triton-X to permeabilize the cells. […] Coverslips were mounted onto microscope glass slides and imaged using a 100× oil immersion lens on a Nikon A1-R Confocal microscope.

Data set [8] concerns whole blood on collagen-coated Vena8 bio-chips. Nature of the data set: Thrombus formation under flow. It counts as cell-based, human. The note with it: 30 µM, shear rate 45 dyn/cm^2, 10 min. On the procedure: Fluorescence intensity was calculated using NIS Elements Software (Nikon, Tokyo, Japan).
On the set-up of data set [9]: method as in Dang et al., 2014. The settings on record: rats, single oral dose of 100 mg/kg; ref Dang et al., 2014; cited from earlier work.
Data set [10] has as its target T3, recombinant ERp72 (Homo sapiens, UniProt P13667).
T3 sequence (P13667 21-645): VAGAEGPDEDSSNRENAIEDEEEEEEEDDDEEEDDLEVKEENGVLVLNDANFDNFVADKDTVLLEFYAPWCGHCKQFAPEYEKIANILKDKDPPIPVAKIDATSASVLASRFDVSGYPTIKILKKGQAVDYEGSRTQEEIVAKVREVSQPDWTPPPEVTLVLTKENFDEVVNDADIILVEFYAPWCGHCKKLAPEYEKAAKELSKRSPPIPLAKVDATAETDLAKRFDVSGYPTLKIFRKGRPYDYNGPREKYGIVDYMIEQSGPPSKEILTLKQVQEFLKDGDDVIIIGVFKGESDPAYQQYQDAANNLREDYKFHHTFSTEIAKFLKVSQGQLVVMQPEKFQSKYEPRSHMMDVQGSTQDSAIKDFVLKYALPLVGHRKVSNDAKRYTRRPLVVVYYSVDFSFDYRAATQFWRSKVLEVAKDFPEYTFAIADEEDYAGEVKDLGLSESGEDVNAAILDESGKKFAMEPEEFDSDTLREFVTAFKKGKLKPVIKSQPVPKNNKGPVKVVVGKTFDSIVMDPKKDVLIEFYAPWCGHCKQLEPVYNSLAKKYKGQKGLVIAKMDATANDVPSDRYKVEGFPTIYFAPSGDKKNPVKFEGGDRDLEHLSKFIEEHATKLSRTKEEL
As to the kind of experiment: Protein fluorescence quenching, ERp72. It counts as binding.

The target in data set [11] is T2, recombinant PDI. As to the kind of experiment: Reductase activity (Di-E-GssG), PDI. It is filed as biochemical. The note with it: PDI 2 µM, myricetin 0.01–10 µM, Di-E-GssG probe.
The target in data set [12] is T4, recombinant ERp5 (Homo sapiens, UniProt Q15084).
T4 sequence (Q15084 20-440): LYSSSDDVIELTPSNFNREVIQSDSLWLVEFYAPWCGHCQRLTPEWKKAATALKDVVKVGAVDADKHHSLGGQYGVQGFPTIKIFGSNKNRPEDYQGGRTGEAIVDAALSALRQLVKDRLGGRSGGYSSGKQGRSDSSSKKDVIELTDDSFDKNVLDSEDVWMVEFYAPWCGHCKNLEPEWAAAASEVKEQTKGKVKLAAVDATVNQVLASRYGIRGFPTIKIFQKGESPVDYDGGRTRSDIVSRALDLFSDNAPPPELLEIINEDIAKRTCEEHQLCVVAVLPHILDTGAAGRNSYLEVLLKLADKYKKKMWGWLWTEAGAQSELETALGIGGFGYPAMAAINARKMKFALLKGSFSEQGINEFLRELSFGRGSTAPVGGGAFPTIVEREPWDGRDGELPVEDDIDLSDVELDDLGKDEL
The note with it: ERp5 2 µM, myricetin 0.01–10 µM, Mean ± SEM.

Data set [13] deals with T4, recombinant ERp5. Nature of the data set: biochemical.
The target of data set [14] is T4, recombinant ERp5. Nature of the data set: Reductase activity (Di-E-GssG), ERp5. It is filed as biochemical. The settings on record: ERp5 2 µM, myricetin 0.01–10 µM, Di-E-GssG probe.
The subject of data set [15] is PDI. The settings on record: insulin turbidimetry, cited from earlier work; for inhibition of PDI (in words): ref Jasuja et al., 2012.

T2 sequence (P07237 18-508): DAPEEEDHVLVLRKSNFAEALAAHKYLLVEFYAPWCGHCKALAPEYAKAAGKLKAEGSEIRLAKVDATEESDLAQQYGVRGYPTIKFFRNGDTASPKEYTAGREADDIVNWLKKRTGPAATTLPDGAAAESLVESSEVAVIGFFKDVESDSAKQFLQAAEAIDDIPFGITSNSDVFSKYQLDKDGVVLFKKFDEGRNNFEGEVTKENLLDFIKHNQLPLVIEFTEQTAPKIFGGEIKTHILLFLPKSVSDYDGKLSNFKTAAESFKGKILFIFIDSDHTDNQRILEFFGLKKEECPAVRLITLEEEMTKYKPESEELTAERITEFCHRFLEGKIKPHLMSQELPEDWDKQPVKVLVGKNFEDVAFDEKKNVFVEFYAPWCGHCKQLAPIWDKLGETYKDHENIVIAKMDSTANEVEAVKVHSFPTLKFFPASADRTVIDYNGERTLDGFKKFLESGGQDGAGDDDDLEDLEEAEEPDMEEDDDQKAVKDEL

`O=C(O)c1cc(O)c(O)c(O)c1` [Gallic acid, gallic acid]: the “fibrinogen binding (in words)” value in data set [1] (CRP-activated washed platelets, 150 μM) is reported as “only able to reduce fibrinogen binding when incubated at 150 μM”. Moreover, the “inhibition of platelet aggregation (in words)” value in [2] (TRAP-6-induced) is “unable to inhibit platelet aggregation, except at the higher concentration used (300 μM)”; in data set [2] (collagen-induced) it was “unable to inhibit platelet aggregation”.
With `O=c1c(O)c(-c2cc(O)c(O)c(O)c2)oc2cc(O)cc(O)c12` [Myricetin], the Kd in [3] stood at 1830 nM; in [4] it was 4260 nM; in [10] (read-out: K d (dissociation constant)), 2530 nM; in [13], 1740 nM. Besides, the “VASP phosphorylation (in words)” value in data set [5] is “did not induce VASP phosphorylation”. Besides, the “Kq (quenching rate constant)” value in [6] stood at 2.12e+12 M⁻¹ s⁻¹; in data set [10] (ERp72, Kq=KSV/τ0, τ0 10^-8 s) it was 2.75e+12 M⁻¹ s⁻¹. Moreover, the inhibition at 30 µM was roughly 25% in data set [7] (Homo sapiens, Platelet, collagen-coated coverslips, 30 μM); roughly 60% in data set [2] (TRAP-6-induced); roughly 80% in [2] (collagen-induced). For the same compound, the “platelet spreading (in words)” value in [7] (fibrinogen-coated coverslips, 7.5-30 μM) was “no effect”. In addition, in data set [8], the “thrombus formation (fluorescence intensity) (in words)” value is “decreased thrombus formation”. The “fibrinogen binding (in words)” value in data set [1] (CRP-activated washed platelets, 15 μM) is reported as “abolish”; in data set [1] (TRAP-6-activated washed platelets), “still inhibited fibrinogen binding”. In addition, in [9], the peak plasma concentration is 10 µM. The “K SV (Stern-Volmer constant)” value is on record as 27,515 ± 5,675 M^-1 in data set [10] (ERp72 2 µM, myricetin 0.01–10 µM, Mean ± SEM) and 48,750 ± 9,554 M^-1 in data set [12]. In addition, the “K b (binding constant)” value in data set [10] (ERp72, determined for highest concentration tested) worked out at 394000 M⁻¹. In addition, the “inhibition of reductase activity (in words)” value in data set [11] is “inhibit both PDI and ERp5, being more potent against PDI”; in [14], “inhibit both PDI and ERp5”.
Consider `O=c1c(O)c(-c2ccc(O)c(O)c2)oc2cc(O)cc(O)c12` [Quercetin, quercetin], for which the “inhibition of PDI (in words)” value in data set [15] was “weak inhibitor of PDI”.
For the compound `O=c1c(O[C@@H]2O[C@H](CO)[C@@H](O)[C@H](O)[C@H]2O)c(-c2ccc(O)c(O)c2)oc2cc(O)cc(O)c12` [isoquercetin], in data set [15] (ref Stopa et al., 2017), the “inhibition of PDI reductase activity (in words)” value was “potent inhibitors of PDI reductase activity”.
Turning to `C[C@@H]1O[C@@H](OC[C@H]2O[C@@H](Oc3c(-c4ccc(O)c(O)c4)oc4cc(O)cc(O)c4c3=O)[C@H](O)[C@@H](O)[C@@H]2O)[C@H](O)[C@H](O)[C@H]1O` [rutin], the “inhibition of PDI (in words)” value in data set [15] is recorded as “potent inhibitors of PDI reductase activity”.
